In patent US11135252B2, “Probiotic therapies for developmental disorders and other neurological disorders” (Baylor College of Medicine, priority 2016, dated 2021):
Entries after “also recorded” stand apart in the source; their conditions may differ.

System: MHFD offspring
Test: Three-chamber social test in MHFD offspring
Type: in vivo, mice
Settings: in drinking water, 4 weeks
Procedure: Crawley's three-chamber test for sociability and preference for social novelty was performed as described (Silverman et al., 2010). In brief, the mouse first experienced a 10-minute period of habituation during which it was allowed to freely explore a 60×40×23 cm Plexiglass arena divided into three equally sized, interconnected chambers (Left, Center, Right). Sociability was measured during a second ten-minute period in which the subject could interact either with an empty wire cup (Empty) or a wire cup containing an age and sex-matched stranger conspecific (Mouse 1). Time spent interacting (sniffing, crawling upon) with either the empty cup or the stranger mouse contained in the other cup as well as time spent in each chamber was recorded using the AnyMaze software, by independent observers. Empty cup placement in the Left or Right chamber during the Sociability period was counterbalanced between trials. Finally, preference for social novelty was assayed by introducing a second stranger mouse (Mouse 2) into the previously the empty wire cup. Time spent in each chamber as well as time spent interacting with either Mouse 1 or Mouse 2 was recorded using the automated AnyMaze software by independent observers. Lactobacillus reuteri MM4-1A (ATCC-PTA-6475) and Lactobacillus johnsonii (ATCC 33200) were cultured anaerobically in MRS broth in a 90% N2, 5% CO2, 5% H2 environment. L. reuteri was heat-killed by keeping the bacteria at 80° C. for 20 minutes (Wang et al., 2010). Bacterial viability was assessed by plating and the efficacy of the heat-kill procedure was confirmed by the absence of colony growth following plating. Cultures were centrifuged, washed, and resuspended in anaerobic solution (PBS) and frozen at −80° C. until use. PBS, live or heat-killed L. reuteri were added to the drinking water, which was changed daily to minimize dosage variability. Whereas the experimental group received live bacteria, one control group received identically prepared cultures of heat-killed bacteria. A second group of control mice received water treated with PBS alone. Live and heat-killed L. reuteri were supplied at a dosage of 1×10^8 organisms/mouse/day continuously in drinking water. Mice consumed the treated water ad libitum over the treatment period. The treated drinking water for each group was replaced daily two hours prior to the onset of the dark cycle to minimize variation in microbial exposure. Behavioral assays were initiated after 4-weeks of L. reuteri or control treatment. The protocol of the L. johnsonii preparation and administration matched the L. reuteri protocol. Fecal samples for sequencing and tissue used in the immunofluorescence studies were collected at the end of the treatment. Oxytocin was obtained from Tocris Bioscience (product 1910) and solubilized in 10% dimethyl sulfoxide (DMSO) in PBS. 10% DMSO in PBS was used as the vehicle control. Mice received oxytocin intranasally (at approximately 200 μg/kg) thirty minutes prior to behavior. 1.25 μl of oxytocin or vehicle solution was injected into each nostril from P10 pipette. Oxytocin dose was selected according to dosages reported to rescue social behavior in genetic models phenotypically expressing ASD-like behaviors (Penagarikano et al., 2015).

Lactobacillus johnsonii (ATCC 33200) [L. johnsonii]
social behavior / social deficits (sociability and preference for social novelty): failed to rescue social behaviors; also recorded: Failed to Reverse Social Deficits
